The term Ki denotes a measure of affinity in units of concentration, obtained from inhibition or displacement.

Seven compounds from BindingDB's records for doi:10.1016/j.chembiol.2003.11.012 (Universit&Agrave, 2003) can be followed below.

Common to all, as to test: Inhibition Assay
What all share (details): pH 7; 20 °C

Test [1] concerns the target T1, Thymidylate synthase (Pneumocystis carinii, UniProt P13100).
T1 sequence (P13100 whole entry): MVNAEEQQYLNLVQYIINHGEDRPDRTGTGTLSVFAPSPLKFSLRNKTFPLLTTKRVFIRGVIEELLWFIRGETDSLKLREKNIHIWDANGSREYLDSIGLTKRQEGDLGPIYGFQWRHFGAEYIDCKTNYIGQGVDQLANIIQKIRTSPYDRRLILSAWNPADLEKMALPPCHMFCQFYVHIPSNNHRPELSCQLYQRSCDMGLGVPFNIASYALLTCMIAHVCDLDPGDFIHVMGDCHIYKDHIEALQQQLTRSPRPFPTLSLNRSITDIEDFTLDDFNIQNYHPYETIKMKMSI
The procedure: (§1) The inhibition assay pattern for all of the compounds was determined by steady-state kinetic analysis of the dependence of the TS enzyme activity on folate concentration at various concentration.

Test [2] concerns the target T2, Thymidylate synthase (Lacticaseibacillus casei, UniProt P00469).
T2 sequence (P00469 whole entry): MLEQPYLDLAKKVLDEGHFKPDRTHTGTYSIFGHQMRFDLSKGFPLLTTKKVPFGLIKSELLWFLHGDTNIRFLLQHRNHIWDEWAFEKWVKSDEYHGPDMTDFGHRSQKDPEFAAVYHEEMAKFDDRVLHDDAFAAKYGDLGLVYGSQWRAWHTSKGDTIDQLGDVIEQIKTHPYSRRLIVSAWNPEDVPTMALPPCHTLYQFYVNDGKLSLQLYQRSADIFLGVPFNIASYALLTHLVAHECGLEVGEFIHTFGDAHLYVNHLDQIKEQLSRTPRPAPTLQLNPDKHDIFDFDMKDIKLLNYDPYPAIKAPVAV
The procedure:
as §1

Test [3] addresses Thymidylate synthase (Escherichia coli (strain K12), UniProt P0A884). The procedure:
as §1

Test [4] concerns the target Thymidylate synthase (Homo sapiens, UniProt P04818). The procedure:
as §1

Test [5] has as its target Bifunctional dihydrofolate reductase-thymidylate synthase (Leishmania major, UniProt P07382). The protocol: as §1

Thymidylate synthase (Escherichia coli (strain K12), UniProt P0A884), sequence (P0A884 whole entry): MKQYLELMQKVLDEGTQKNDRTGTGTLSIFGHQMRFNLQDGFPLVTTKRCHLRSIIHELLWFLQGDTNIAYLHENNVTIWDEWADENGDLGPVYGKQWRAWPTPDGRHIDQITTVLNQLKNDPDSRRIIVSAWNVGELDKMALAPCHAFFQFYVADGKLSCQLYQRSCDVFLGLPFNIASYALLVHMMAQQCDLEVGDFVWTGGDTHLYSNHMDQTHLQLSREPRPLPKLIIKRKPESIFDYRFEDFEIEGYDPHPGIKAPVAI
Bifunctional dihydrofolate reductase-thymidylate synthase, sequence (P07382 whole entry): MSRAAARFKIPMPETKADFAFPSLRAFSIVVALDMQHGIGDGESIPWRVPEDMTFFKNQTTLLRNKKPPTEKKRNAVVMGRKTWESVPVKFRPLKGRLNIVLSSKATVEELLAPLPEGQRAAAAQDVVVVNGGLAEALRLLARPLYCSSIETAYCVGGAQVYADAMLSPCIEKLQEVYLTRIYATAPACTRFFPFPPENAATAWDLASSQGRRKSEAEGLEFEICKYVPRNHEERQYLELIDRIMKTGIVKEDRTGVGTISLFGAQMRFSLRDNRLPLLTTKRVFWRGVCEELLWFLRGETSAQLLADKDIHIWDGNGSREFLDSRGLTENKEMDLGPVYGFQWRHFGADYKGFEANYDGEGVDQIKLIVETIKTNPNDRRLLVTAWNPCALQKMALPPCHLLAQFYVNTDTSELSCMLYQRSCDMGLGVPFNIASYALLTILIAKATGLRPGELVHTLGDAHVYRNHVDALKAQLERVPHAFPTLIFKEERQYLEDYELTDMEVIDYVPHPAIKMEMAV
Thymidylate synthase (Homo sapiens, UniProt P04818), sequence (P04818 whole entry): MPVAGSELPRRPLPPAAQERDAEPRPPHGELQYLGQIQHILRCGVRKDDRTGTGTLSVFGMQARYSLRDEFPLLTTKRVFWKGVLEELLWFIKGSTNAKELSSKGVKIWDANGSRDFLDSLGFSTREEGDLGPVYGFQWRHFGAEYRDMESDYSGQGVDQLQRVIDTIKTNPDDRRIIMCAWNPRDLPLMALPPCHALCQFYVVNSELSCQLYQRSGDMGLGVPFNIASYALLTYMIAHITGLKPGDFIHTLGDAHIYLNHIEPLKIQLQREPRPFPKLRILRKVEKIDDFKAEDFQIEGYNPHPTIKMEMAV

`O=C1OC(c2ccc(O)c(F)c2)(c2ccc(O)c(F)c2)c2ccc(Cl)c3cccc1c23` [Phenolnaphthalein derivative, 3]: the Ki on Thymidylate synthase [1] was 22 µM; on Thymidylate synthase [2], 1.8 µM; on Thymidylate synthase [3] it was 1.1 µM; on Thymidylate synthase [4], more than 245 µM; in test [5] it was more than 1080 µM.
Turning to `O=C1OC(c2ccc(O)c(Br)c2)(c2ccc(O)c(Br)c2)c2c1ccc1ccccc21` [Phenolnaphthalein derivative, 4], the Ki on Thymidylate synthase [1] was more than 132 µM; at Thymidylate synthase [3] it was 0.9 µM; on Thymidylate synthase [4], more than 132 µM; in test [5] it was 63 µM.
The compound `O=C1OC(c2ccc(O)c(Cl)c2)(c2ccc(O)c(Cl)c2)c2cccc3cccc1c23` had a Ki in test [5] of more than 1080 µM.
Consider `C#CCN(Cc1ccc2nc(N)[nH]c(=O)c2c1)c1ccc(C(=O)N[C@@H](CCC(=O)O)C(=O)O)cc1`, for which the Ki in test [5] is 0.08 µM. This counts as double-digit nanomolar.
Take `O=C1OC(c2cc(Br)c(O)c(Br)c2)(c2cc(Br)c(O)c(Br)c2)c2c1ccc1ccccc21` [Phenolnaphthalein derivative, 5]: the inhibition constant (Ki) on Thymidylate synthase [1] is 32.7 µM; on Thymidylate synthase [4] it was more than 245 µM; in test [5], 41 µM.
For the compound `O=C1OC(c2ccc(O)c(Br)c2)(c2ccc(O)c(Br)c2)c2ccc(Cl)c3cccc1c23` [Phenolnaphthalein derivative, 2], the inhibitory constant (Ki) was 28 µM on Thymidylate synthase [1]; 0.8 µM at Thymidylate synthase [2]; 4.1 µM at Thymidylate synthase [3]; more than 245 µM at Thymidylate synthase [4]; more than 1080 µM in test [5].
Compound `O=C1OC(c2ccc(O)c(F)c2)(c2ccc(O)c(F)c2)c2cccc3cccc1c23` [Phenolnaphthalein derivative, 1] yielded a Ki in test [5] of more than 1780 µM.
